Among the data in patent US20260184712A1, “Heterocyclic Compounds as ENT Inhibitors and Compounds for Use in the Treatment of Cancers” (iTeos Belgium SA, priority 2022, published 2026) are IC50 values, retold here.

For assay [1], the system named is stimulated primary human T cells. Nature of the assay: T cell proliferation assay, Condition B (X-VIVO15, 2% HSA and 0.1% AAG). Type of assay: cell-based. Conditions: Condition B: X-VIVO15 medium containing HSA and α1-Acid Glycoprotein, anti-CD3/anti-CD28 beads, ATP, 4 days, CFSE-lo T cells. In short, it runs like this: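 CFSE-labelled CD3+ T cells from healthy donors (2×10^4/well) in X-VIVO15 with 2% HSA and 0.1% AAG were stimulated with anti-CD3/CD28 beads. After 30 min pre-incubation with inhibitor, ATP was added and cells were cultured 4 days at 37° C. Flow cytometry gave % CFSE^lo cells, with IC50/IC90 and pICF from curve fits.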

For assay [2] the test system is unchanged. Nature of the assay: T cell proliferation assay, Condition A (X-VIVO15). Type of assay: cell-based. Conditions: Condition A: X-VIVO15 medium, anti-CD3/anti-CD28 beads, ATP, 4 days, CFSE-lo T cells. In short, it runs like this:
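CFSE-labelled human CD3+ T cells (2×10^4/well) in serum-free X-VIVO15 were activated with anti-CD3/CD28 beads (1 bead:2 cells), pre-incubated 30 min with inhibitor, then cultured with 100 uM ATP for 4 days at 37 °C. Flow cytometry measured %CFSE^lo cells, and IC50/IC90 came from log-concentration curve fits.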

Another assay addresses T1, Human ENT2 (Homo sapiens, UniProt Q14542).
T1 construct: expressed in transfected cells
T1 sequence (Q14542 1-456): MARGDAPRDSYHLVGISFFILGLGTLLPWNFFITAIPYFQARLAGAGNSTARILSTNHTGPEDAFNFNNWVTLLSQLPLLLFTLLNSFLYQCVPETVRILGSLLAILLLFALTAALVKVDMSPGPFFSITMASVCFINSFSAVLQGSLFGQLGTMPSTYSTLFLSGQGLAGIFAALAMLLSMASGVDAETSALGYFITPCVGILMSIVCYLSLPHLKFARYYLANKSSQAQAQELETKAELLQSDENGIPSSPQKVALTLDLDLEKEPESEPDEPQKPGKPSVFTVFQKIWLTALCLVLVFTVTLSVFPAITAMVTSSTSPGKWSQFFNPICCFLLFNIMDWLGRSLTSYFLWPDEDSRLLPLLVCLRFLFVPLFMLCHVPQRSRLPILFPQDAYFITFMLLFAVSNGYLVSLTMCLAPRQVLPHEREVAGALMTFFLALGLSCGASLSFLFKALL
The assay is described as follows: Adenosine uptake assay, ENT2-mediated transport in MDCKII cells. The assay is classed as cell-based. Conditions: MDCKIIENT2-LV cells, probe adenosine 0.5 μM, pre-incubation 30 min, incubation 10 min. The protocol:
The goal of this study was to determine the potency and selectivity of ENT1 inhibitors by measuring ENT1 and ENT2-mediated transport using an in vitro cellular uptake assay.
Human ENT1 and ENT2 transporters were stably expressed in Madin-Darby Canine Kidney II (MDCKII) cells via transduction. Cell lines overexpressing the relevant ENT1 or ENT2 molecules were preincubated with a dose range of the relevant compound for 30 minutes before introduction of the specific substrate at the concentration indicated in the Table assay parameters below. The transporter assay was conducted for the time specified in the Table assay parameters before the specific uptake of the substrate into the cells was quantified. Specific uptake was determined by comparing the uptake from the cells treated with the relevant compounds and the uptake by cells not overexpressing the transporter in question.
Specific uptake for each concentration of the test sample was normalized to the DMSO control value to generate a relative accumulation value (or relative transporter activity). Data were plotted against the log molar concentration of the test reagent used. IC50 values were generated with Prism version 9.4.1 and the following function: log(inhibitor) vs. response—Variable slope (four parameters).

The next assay has as its target T2, human ENT1 (Homo sapiens, UniProt Q99808).
T2 construct: JAR cells expressing ENT1 were purchased from ATCC; host or cells: JAR cells
T2 sequence (Q99808 1-456): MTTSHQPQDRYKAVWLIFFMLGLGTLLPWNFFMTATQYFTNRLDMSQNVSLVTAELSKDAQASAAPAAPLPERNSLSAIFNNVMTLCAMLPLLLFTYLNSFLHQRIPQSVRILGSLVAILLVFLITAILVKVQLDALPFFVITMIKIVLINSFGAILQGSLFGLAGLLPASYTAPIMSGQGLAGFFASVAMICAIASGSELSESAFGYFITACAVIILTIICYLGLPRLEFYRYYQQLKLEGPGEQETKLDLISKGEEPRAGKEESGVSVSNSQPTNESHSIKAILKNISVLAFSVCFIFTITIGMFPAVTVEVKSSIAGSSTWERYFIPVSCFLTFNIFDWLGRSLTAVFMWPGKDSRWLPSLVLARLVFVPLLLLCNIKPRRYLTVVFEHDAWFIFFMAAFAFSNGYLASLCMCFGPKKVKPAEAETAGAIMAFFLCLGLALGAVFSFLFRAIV
The assay is described as follows: ENT1 binding assay (competition with Sahenta-DY647 on JAR cells). Conditions: competition with SAHENTA-DY647 binding; IC50 categorized; read-out: Binding Assay IC50. In short, it runs like this: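 Fluorescent-tracer displacement: compound incubated with JAR cells 30 min, 4 °C, before Sahenta-DY647 (100 nM) for another 30 min, 4 °C, in Hepes-buffered HBSS with 0.1% BSA. Bound tracer read at 670 nm after washes; IC50 from four-parameter fit, reported as mean of pIC50 values.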

The IC50 is the point on the concentration scale where inhibition reaches its midpoint.

Turning to `COc1cc(C(=O)OCCCN2CCCN(CCCOC(=O)c3cc(OC)c(OC)c(OC)c3)CC2)cc(OC)c1OC` [Dilazep, dilazep, reference compound], the IC50 was 0.02 to 0.5 µM in assay [1] (Homo sapiens, T-cell, 96 h); 0.001 to 0.02 µM in assay [2] (Homo sapiens, T-cell, 96 h); greater than 1 µM against Human ENT2.

For the molecule `O=[N+]([O-])c1ccc(CSc2ncnc3c2ncn3[C@@H]2O[C@H](CO)[C@@H](O)[C@H]2O)cc1` [NBMPR, reference compound], the IC50 was 0.02 to 0.5 µM in assay [1], 0.001 to 0.02 µM in assay [2] and greater than 1 µM at Human ENT2.

`C[C@H]1O[C@@H](n2cnc3c(OCCc4ccc(C#N)nn4)ncnc32)[C@H](O)[C@@H]1O` [Compound 188]: the IC50 at human ENT1 was 0.02 to 0.5 µM; in assay [1] (Homo sapiens, T-cell, 96 h) it was greater than 0.5 µM; in assay [2] (Homo sapiens, T-cell, 96 h), 0.001 to 0.02 µM.

Turning to `C[C@H]1O[C@@H](n2cnc3c(NCc4ccc([N+](=O)[O-])cc4)ncnc32)[C@H](O)[C@@H]1O` [Compound 185], the IC50 on human ENT1 is 0.02 to 0.5 µM; in assay [1] (Homo sapiens, T-cell, 96 h), greater than 0.5 µM; in assay [2] (Homo sapiens, T-cell, 96 h), 0.02 to 0.5 µM.

Turning to `C[C@H]1O[C@@H](n2c(NC3CCCC3)nc3c(OCc4ccc(C#N)c(F)c4)ncnc32)[C@H](O)[C@@H]1O` [Compound 89], the IC50 is less than 0.001 µM at human ENT1; 0.02 to 0.5 µM in assay [1] (Homo sapiens, T-cell, 96 h); less than 0.001 µM in assay [2] (Homo sapiens, T-cell, 96 h).

As for `C[C@H]1O[C@@H](n2c(NCCO)nc3c(OCc4ccc([N+](=O)[O-])cc4)ncnc32)[C@H](O)[C@@H]1O` [Compound 21], the IC50 at human ENT1 fell in the range of 0.001 to 0.02 µM; in assay [1] (Homo sapiens, T-cell, 96 h) it was 0.02 to 0.5 µM; in assay [2] (Homo sapiens, T-cell, 96 h) it was 0.001 to 0.02 µM.

On to `C[C@H]1O[C@@H](n2c(NC3CCCC3)nc3c(OCc4ccc(OC(F)F)nc4)ncnc32)[C@H](O)[C@@H]1O` [Compound 14], for which the IC50 on human ENT1 is less than 0.001 µM; in assay [1] (Homo sapiens, T-cell, 96 h), 0.02 to 0.5 µM; in assay [2] (Homo sapiens, T-cell, 96 h), less than 0.001 µM.

With `C[C@H]1O[C@@H](n2c(NCC3CCOC3)nc3c(OCc4ccc(C#N)cc4)ncnc32)[C@H](O)[C@@H]1O` (stereo partly drawn) [Compound 108], the IC50 at human ENT1 was 0.001 to 0.02 µM; in assay [1] (Homo sapiens, T-cell, 96 h), 0.02 to 0.5 µM; in assay [2] (Homo sapiens, T-cell, 96 h), 0.001 to 0.02 µM.
